From patent US11198687B2, “Heteroaryl allosteric modulators of nicotinic acetylcholine receptors” (Merck Sharp & Dohme Corp., priority 2017, dated 2021)
Like-named read-outs stand apart in the source and are kept apart here.

Target: human α7 nAChR (Homo sapiens, UniProt P36544)
Test: Automated patch-clamp electrophysiology functional assay (Assay A)
Format: cell-based
Conditions: IonFlux HT whole-cell population patch, HEK cell line stably expressing human RIC-3 and human α7, 40 μM acetylcholine
Procedure: The α7 nAChR positive allosteric modulator (PAM) activity of the present compounds may be tested using assays known in the art. […] The assay was performed using the IonFlux HT in a whole-cell, population patch configuration. See Golden et al. Assay Drug Dev. Technol. (2011) 9:608-619. The compounds were assessed for their ability to modulate the function of the human α7 nAChR stably expressed in a HEK cell line both in the presence, and in the absence of the natural α7 agonist acetylcholine. By performing a series of such measurements at different concentrations, the effective concentration of the α7 nAChR PAMs (EC50) was determined. See Spencer et al. Assay Drug Dev. Technol. (2012) 10:313-324.
Direct activation of α7 (agonism), and potentiation of acetylcholine-evoked α7 currents was determined as follows:
Automated Patch-Clamp Electrophysiology Functional Assay (Assay A)
Automated patch-clamp electrophysiology was performed using the IonFlux HT (Fluxion Biosciences Inc., San Francisco, Calif.) in the whole-cell, population patch configuration. Test compounds were assessed for their ability to modulate the function of the α7 nicotinic acetylcholine receptor both in the presence, and in the absence of the natural α7 agonist acetylcholine. A HEK cell line stably expressing both human RIC-3 and human α7 (PrecisION hnAChR α7/RIC-3, Eurofins Pharma, St. Charles, Mo.) was cultured in 175 cm^2 triple-layer tissue culture flasks to no more than 90% confluency in DMEM/F-12 growth media supplemented with 10% heat-inactivated fetal bovine serum, 1% non-essential amino acids, 0.625 μg/mL Puromycin, and 400 μg/mL Geneticin. Immediately prior to assay, cells were detached by first aspirating growth media, rinsing with Dulbecco's phosphate buffered saline, and then adding 10 mL of Accutase (Innovative Cell Technologies, San Diego, Calif.) to the flask and then incubating at 37° C. for 5 minutes. Detached cells were then recovered by the addition of 40 mL of CHO-serum-free media supplemented with 25 mM HEPES, and rocked gently in a 50 mL conical tube for 20 minutes prior to patch-clamp assay. […] The cell suspension was added to the cell inlet wells on an IonFlux HT population patch plate which had previously been rinsed and primed with deionized H2O. Test compounds were serially diluted in DMSO and then resuspended to the final test concentration in external recording solution, with, or without 40 μM acetylcholine added to the external recording solution; test compounds were then transferred to the lonFlux HT population patch plate. Internal recording solution (110 mM TrisPO4, 28 mM TrisBase, 0.1 mM CaCl2, 2 mM MgCl2, 11 mM EGTA, 4 mM MgATP) was added to the internal recording solution inlet wells on the IonFlux HT patch plate previously loaded with cells and test compounds, and the plate loaded into the IonFlux HT instrument. A protocol was executed on the IonFlux HT to trap the cells, break into the cells, and establish the whole-cell recording configuration; cells were voltage-clamped at a holding potential of −60 mV for the duration of the experiment, all experiments were conducted at room temperature, and the IonFlux HT injection pressure was 8 psi for solution applications. Upon establishing the whole-cell configuration, external recording solution was perfused into the recording chambers for 120 seconds and then 40 μM acetylcholine was applied for 1 second and immediately washed off with external recording solution for 60 seconds. The 40 μM acetylcholine-evoked α7 current served as the current response to which subsequent test compound effects, in the presence, or in the absence of 40 μM acetylcholine would be quantified relative to. Next, test compounds were evaluated at multiple concentrations for their ability to induce, or modulate α7 current responses; three concentrations of test compound were evaluated in ascending dose fashion per recording.

human α7 nAChR, sequence (P36544 23-502): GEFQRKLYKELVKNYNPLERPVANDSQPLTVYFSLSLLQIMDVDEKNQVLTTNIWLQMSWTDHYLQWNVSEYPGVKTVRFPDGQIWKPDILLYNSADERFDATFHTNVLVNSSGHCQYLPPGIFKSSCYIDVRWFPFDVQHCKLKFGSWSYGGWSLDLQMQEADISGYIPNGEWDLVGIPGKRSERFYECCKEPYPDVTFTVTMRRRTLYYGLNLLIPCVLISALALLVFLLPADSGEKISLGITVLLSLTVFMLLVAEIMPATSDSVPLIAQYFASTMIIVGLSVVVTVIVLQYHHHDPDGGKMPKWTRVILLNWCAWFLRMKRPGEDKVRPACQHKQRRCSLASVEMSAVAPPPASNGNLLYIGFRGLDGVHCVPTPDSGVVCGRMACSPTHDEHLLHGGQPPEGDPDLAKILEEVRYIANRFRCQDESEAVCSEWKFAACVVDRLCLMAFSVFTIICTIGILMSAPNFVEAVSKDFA

| SMILES | EC50 (read-out: α7 nAChR EC50) | EC50 (read-out: α7 nAChR Potency) |
| --- | --- | --- |
| NS(=O)(=O)c1ccc([C@@H]2C[C@H]2c2nc(C3CCCC3)no2)nc1 (racemic) [Example G7, 6-[trans-2-(3-Cyclopentyl-1,2,4-oxadiazol-5-yl)cyclopropyl]pyridine-3-sulfonamide] | 3000 nM | 500 to 5000 nM |
| CC1(C)[C@@H](c2ccc(S(N)(=O)=O)nc2)[C@@H]1c1nnc(-c2ccc(F)cc2F)s1 (relative stereo) [Example 2, 5-{trans-3-[5-(2,4-Difluorophenyl)-1,3,4-thiadiazol-2-yl]-2,2-dimethylcyclopropyl}pyridine-2-sulfonamide] | 480 nM | 100 to 500 nM |
| Cc1nc(S(N)(=O)=O)ccc1[C@@H]1C[C@H]1c1nc(-c2ccccc2)no1 (relative stereo) [Example 5, 6-Methyl-5-[trans-2-(3-phenyl-1,2,4-oxadiazol-5-yl)cyclopropyl]pyridine-2-sulfonamide] | 3400 nM | 500 to 5000 nM |
| CC1(C)[C@@H](c2ccc(S(N)(=O)=O)nc2)[C@@H]1c1noc(-c2ccccc2)n1 (relative stereo) [Example 11, 5-[trans-2,2-Dimethyl-3-(5-phenyl-1,2,4-oxadiazol-3-yl)cyclopropyl]pyridine-2-sulfonamide] | 990 nM | 500 to 5000 nM |
| CC1(C)[C@@H](c2ccc(S(N)(=O)=O)nc2)[C@@H]1c1cc(C2CCCC2)no1 (relative stereo) [Example 12, 5-[trans-3-(3-Cyclopentylisoxazol-5-yl)-2,2-dimethylcyclopropyl]pyridine-2-sulfonamide] | 1100 nM | 500 to 5000 nM |
| CC1(C)[C@@H](c2ccc(S(N)(=O)=O)nc2)[C@@H]1c1nc2ccccc2o1 (relative stereo) [Example C7, 5-[trans-3-(1,3-Benzoxazol-2-yl)-2,2-dimethylcyclopropyl]pyridine-2-sulfonamide] | 1600 nM | 500 to 5000 nM |
| CC1(C)C(c2ccc(S(N)(=O)=O)nc2)C1c1nc2ccccc2o1 (single isomer, unassigned) [Example 1, 5-[trans-3-(1,3-Benzoxazol-2-yl)-2,2-dimethylcyclopropyl]pyridine-2-sulfonamide] | 450 nM | 100 to 500 nM |
| NS(=O)(=O)c1ccc(C2CC2c2nc(-c3ccccc3)no2)cn1 (single isomer, unassigned) [Example 4, 5-[trans-2-(3-Phenyl-1,2,4-oxadiazol-5-yl)cyclopropyl]pyridine-2-sulfonamide] | 400 nM | 100 to 500 nM |
| CC1(C)C(c2ccc(S(N)(=O)=O)nc2)C1c1cc(-c2cccc(F)c2)on1 (single isomer, unassigned) [Example 13, 5-{trans-3-[5-(3-Fluorophenyl)isoxazol-3-yl]-2,2-dimethylcyclopropyl}pyridine-2-sulfonamide] | 770 nM | 500 to 5000 nM |
| CC1(C)C(c2ccc(S(N)(=O)=O)nc2)C1c1cc(-c2cccc(F)c2)on1 (single isomer, unassigned) [Example C13, 5-{trans-3-[5-(3-Fluorophenyl)isoxazol-3-yl]-2,2-dimethylcyclopropyl}pyridine-2-sulfonamide] | 1100 nM | 500 to 5000 nM |
| CC1(C)[C@@H](c2ccc(S(N)(=O)=O)nc2)[C@@H]1c1nc(-c2ccccc2)no1 [Example 3, 5-[(1S,3S)-2,2-Dimethyl-3-(3-phenyl-1,2,4-oxadiazol-5-yl)cyclopropyl]pyridine-2-sulfonamide] | 380 nM | 100 to 500 nM |
| CC1(C)[C@@H](c2nc(-c3ccccc3)no2)[C@@H]1c1ncc(S(N)(=O)=O)s1 [Example 6, 2-[(1S,3S)-2,2-dimethyl-3-(3-phenyl-1,2,4-oxadiazol-5-yl)cyclopropyl]-1,3-thiazole-5-sulfonamide] | 590 nM | 500 to 5000 nM |
| CC1(C)[C@H](c2ccc(S(N)(=O)=O)nc2)[C@H]1c1nc(C2CCCCC2)no1 [Example 7, 5-[(1R,3R)-3-(3-Cyclohexyl-1,2,4-oxadiazol-5-yl)-2,2-dimethylcyclopropyl]pyridine-2-sulfonamide] | 640 nM | 500 to 5000 nM |
| CC1(C)[C@@H](c2ccc(S(N)(=O)=O)nc2)[C@@H]1c1ncc(-c2ccccc2)o1 [Example 8, 5-[(1S,3S)-2,2-Dimethyl-3-(5-phenyl-1,3-oxazol-2-yl)cyclopropyl]pyridine-2-sulfonamide] | 1500 nM | 500 to 5000 nM |
| CC1(C)[C@H](c2ccc(S(N)(=O)=O)nc2)[C@H]1c1ncc(C2CCCC2)s1 [Example 9, 5-[(1R,3R)-3-(5-Cyclopentyl-1,3-thiazol-2-yl)-2,2-dimethylcyclopropyl]pyridine-2-sulfonamide] | 720 nM | 500 to 5000 nM |
| CC1(C)[C@@H](c2ccc(S(N)(=O)=O)cn2)[C@@H]1c1nc(C2CCCCC2)no1 [Example 10, 6-[(1S,3S)-3-(3-Cyclohexyl-1,2,4-oxadiazol-5-yl)-2,2-dimethylcyclopropyl]pyridine-3-sulfonamide] | 480 nM | 100 to 500 nM |
| CC1(C)[C@H](c2ccc(S(N)(=O)=O)nc2)[C@H]1c1nc(-c2ccccc2)no1 [Example A1, 5-[(1R,3R)-2,2-Dimethyl-3-(3-phenyl-1,2,4-oxadiazol-5-yl)cyclopropyl]pyridine-2-sulfonamide] | 1500 nM | 500 to 5000 nM |
| CC1(C)[C@H](c2ccc(S(N)(=O)=O)nc2)[C@H]1c1nc(-c2cncc(C(F)(F)F)c2)no1 [Example A2, 5-[(1R,3R)-2,2-Dimethyl-3-{3-[5-(trifluoromethyl)pyridin-3-yl]-1,2,4-oxadiazol-5-yl}cyclopropyl]pyridine-2-sulfonamide] | 1400 nM | 500 to 5000 nM |
| CC1(C)[C@H](c2ccc(S(N)(=O)=O)nc2)[C@H]1c1nc(C2CCCC2)no1 [Example A3, 5-[(1R,3R)-3-(3-Cyclopentyl-1,2,4-oxadiazol-5-yl)-2,2-dimethylcyclopropyl]pyridine-2-sulfonamide] | 2900 nM | 500 to 5000 nM |
| CC1(C)[C@H](c2ccc(S(N)(=O)=O)nc2)[C@H]1c1ncc(C2CCCC2)o1 [Example A4, 5-[(1R,3R)-3-(5-Cyclopentyl-1,3-oxazol-2-yl)-2,2-dimethylcyclopropyl]pyridine-2-sulfonamide] | 3200 nM | 500 to 5000 nM |
| COc1ccc(Cl)cc1-c1noc([C@@H]2[C@@H](c3ccc(S(N)(=O)=O)nc3)C2(C)C)n1 [Example A6, 5-{(1R,3R)-3-[3-(5-Chloro-2-methoxyphenyl)-1,2,4-oxadiazol-5-yl]-2,2-dimethylcyclopropyl}pyridine-2-sulfonamide] | 1500 nM | 500 to 5000 nM |
| CC1(C)[C@H](c2ccc(S(N)(=O)=O)nc2)[C@H]1c1nc(-c2cccc(F)c2)no1 [Example A7, 5-{(1R,3R)-3-[3-(3-Fluorophenyl)-1,2,4-oxadiazol-5-yl]-2,2-dimethylcyclopropyl}pyridine-2-sulfonamide] | 650 nM | 500 to 5000 nM |
| CC1(C)[C@H](c2ccc(S(N)(=O)=O)nc2)[C@H]1c1nc(-c2ccc(F)cc2F)no1 [Example A8, 5-{(1R,3R)-3-[3-(2,4-Difluorophenyl)-1,2,4-oxadiazol-5-yl]-2,2-dimethylcyclopropyl}pyridine-2-sulfonamide] |  | 500 to 5000 nM |
| CC1(C)[C@H](c2ccc(S(N)(=O)=O)nc2)[C@H]1c1nc(-c2cncc(F)c2)no1 [Example A9, 5-{(1R,3R)-3-[3-(5-Fluoropyridin-3-yl)-1,2,4-oxadiazol-5-yl]-2,2-dimethylcyclopropyl}pyridine-2-sulfonamide] | 5000 nM | 500 to 5000 nM |
